The NIST ThermoML archive (doi:10.1007/s10765-006-0100-z)
± gives the expanded uncertainty stated by the source.

How the values were obtained:
[1] = xn = mol fraction of the nth substance listed; settings: 101 kPa, Liquid; for mass density: Vibrating tube method
[2] = 101 kPa, Liquid; for mass density: Vibrating tube method

CCCCCl [1-chlorobutane] + C1CCOCC1
[1]
Settings	kinematic viscosity [m2/s]	mass density [kg/m3]
298.15 K, x2 = 0	4.78e-07 ± 7.1e-09	880.69 ± 2
298.15 K, x2 = 0.0243	4.84e-07 ± 7.2e-09	–
298.15 K, x2 = 0.0521	–	880.67 ± 2
298.15 K, x2 = 0.1006	–	880.66 ± 2
298.15 K, x2 = 0.1039	5.02e-07 ± 7.4e-09	–
298.15 K, x2 = 0.1949	–	880.62 ± 2
298.15 K, x2 = 0.2058	5.29e-07 ± 7.7e-09	–
298.15 K, x2 = 0.2549	–	880.59 ± 2
298.15 K, x2 = 0.307	5.59e-07 ± 8.1e-09	–
298.15 K, x2 = 0.3774	–	880.48 ± 2
298.15 K, x2 = 0.3984	5.89e-07 ± 8.4e-09	–
298.15 K, x2 = 0.5035	–	880.26 ± 2
298.15 K, x2 = 0.5077	6.3e-07 ± 8.9e-09	–
298.15 K, x2 = 0.5948	–	880.06 ± 2
298.15 K, x2 = 0.6038	6.69e-07 ± 9.4e-09	–
298.15 K, x2 = 0.661	–	879.87 ± 2
298.15 K, x2 = 0.7064	7.18e-07 ± 1e-08	–
298.15 K, x2 = 0.7893	–	879.49 ± 2
298.15 K, x2 = 0.7994	7.68e-07 ± 1.1e-08	–
298.15 K, x2 = 0.9058	8.37e-07 ± 1.1e-08	–
298.15 K, x2 = 0.9203	–	879.07 ± 2
298.15 K, x2 = 0.9498	8.7e-07 ± 1.2e-08	–
298.15 K, x2 = 0.9666	–	878.91 ± 2
313.15 K, x2 = 0	4.21e-07 ± 6.5e-09	863.82 ± 2
313.15 K, x2 = 0.0243	4.28e-07 ± 6.5e-09	–
313.15 K, x2 = 0.0348	–	863.98 ± 2
313.15 K, x2 = 0.0899	–	864.19 ± 2
313.15 K, x2 = 0.1039	4.42e-07 ± 6.7e-09	–
313.15 K, x2 = 0.1717	–	864.39 ± 2
313.15 K, x2 = 0.2058	4.63e-07 ± 7e-09	–
313.15 K, x2 = 0.2933	–	864.54 ± 2
313.15 K, x2 = 0.307	4.86e-07 ± 7.2e-09	–
313.15 K, x2 = 0.3984	5.09e-07 ± 7.5e-09	–
313.15 K, x2 = 0.413	–	864.6 ± 2
313.15 K, x2 = 0.4926	–	864.61 ± 2
313.15 K, x2 = 0.5077	5.4e-07 ± 7.9e-09	–
313.15 K, x2 = 0.6026	–	864.59 ± 2
313.15 K, x2 = 0.6038	5.72e-07 ± 8.2e-09	–
313.15 K, x2 = 0.7064	6.1e-07 ± 8.7e-09	–
313.15 K, x2 = 0.7085	–	864.52 ± 2
313.15 K, x2 = 0.7994	6.49e-07 ± 9.2e-09	–
313.15 K, x2 = 0.8006	–	864.45 ± 2
313.15 K, x2 = 0.899	–	864.22 ± 2
313.15 K, x2 = 0.9058	7.01e-07 ± 9.8e-09	–
313.15 K, x2 = 0.9498	7.25e-07 ± 1e-08	–
313.15 K, x2 = 0.9724	–	863.88 ± 2

C1CCOCC1 [tetrahydropyran]
[2]
Settings	kinematic viscosity [m2/s]	mass density [kg/m3]
298.15 K	9.1e-07 ± 1.2e-08	878.81 ± 2
313.15 K	7.57e-07 ± 1e-08	863.67 ± 2

CCC(C)Cl (configuration not stated) [2-chlorobutane]
[2]
Settings	kinematic viscosity [m2/s]	mass density [kg/m3]
298.15 K	4.54e-07 ± 6.8e-09	867.37 ± 2
313.15 K	3.96e-07 ± 6.2e-09	850.13 ± 2

C1CCOCC1 [tetrahydropyran] + CC(C)CCl
[1], x1 = 1
Settings	kinematic viscosity [m2/s]	mass density [kg/m3]
298.15 K	9.1e-07 ± 1.2e-08	878.81 ± 2
313.15 K	7.57e-07 ± 1e-08	863.67 ± 2

CCCCCl [1-chlorobutane]
[2]
Settings	kinematic viscosity [m2/s]	mass density [kg/m3]
298.15 K	4.78e-07 ± 7.1e-09	880.69 ± 2
313.15 K	4.21e-07 ± 6.5e-09	863.82 ± 2

CCC(C)Cl (configuration not stated) [2-chlorobutane] + C1CCOCC1
[1]
Settings	kinematic viscosity, 298.15 K [m2/s]	kinematic viscosity, 313.15 K [m2/s]	mass density, 298.15 K [kg/m3]	mass density, 313.15 K [kg/m3]
x2 = 0	4.54e-07 ± 6.8e-09	3.96e-07 ± 6.2e-09	867.37 ± 2	850.13 ± 2
x2 = 0.0525	–	–	868.05 ± 2	–
x2 = 0.0605	4.66e-07 ± 7e-09	4.09e-07 ± 6.3e-09	–	851.11 ± 2
x2 = 0.1035	–	–	869.06 ± 2	–
x2 = 0.1166	4.8e-07 ± 7.2e-09	4.22e-07 ± 6.5e-09	–	852.02 ± 2
x2 = 0.1947	–	–	870.26 ± 2	–
x2 = 0.2131	5.08e-07 ± 7.5e-09	4.45e-07 ± 6.7e-09	–	853.59 ± 2
x2 = 0.3042	–	–	871.8 ± 2	–
x2 = 0.3174	5.42e-07 ± 7.9e-09	4.72e-07 ± 7.1e-09	–	855.4 ± 2
x2 = 0.4088	5.75e-07 ± 8.3e-09	4.97e-07 ± 7.4e-09	–	857 ± 2
x2 = 0.4091	–	–	872.95 ± 2	–
x2 = 0.4994	6.11e-07 ± 8.7e-09	5.25e-07 ± 7.7e-09	–	858.35 ± 2
x2 = 0.5025	–	–	874.28 ± 2	–
x2 = 0.5947	–	–	875.42 ± 2	–
x2 = 0.6122	6.62e-07 ± 9.3e-09	5.66e-07 ± 8.2e-09	–	859.58 ± 2
x2 = 0.7108	7.14e-07 ± 9.9e-09	6.06e-07 ± 8.6e-09	–	861.03 ± 2
x2 = 0.7116	–	–	876.72 ± 2	–
x2 = 0.8059	7.69e-07 ± 1.1e-08	6.49e-07 ± 9.2e-09	–	862.1 ± 2
x2 = 0.809	–	–	877.46 ± 2	–
x2 = 0.8917	–	–	878.36 ± 2	–
x2 = 0.9023	8.34e-07 ± 1.1e-08	6.97e-07 ± 9.7e-09	–	862.9 ± 2
x2 = 0.9549	8.73e-07 ± 1.2e-08	7.28e-07 ± 1e-08	–	863.45 ± 2
x2 = 0.9599	–	–	878.55 ± 2	–
